# Activity calls are given as the source filed them.
# Experiments:
# [1] = Luminescence Cell-Based Dose Response to Identify Activators of 5'UTR Stem-Loop Driven Prion Protein mRNA Translation in H4-C Neuroglioblastoma Cells. [Related pubchem assays: 1829 (Project Summary), 1814 (Primary HTS)]; type: functional
# [2] = Luminescence Cell-Based Dose Confirmation HTS to Identify Activators of 5'UTR Stem-Loop Driven Alpha-Synuclein mRNA Translation in H4 Neuroglioblastoma Cells. [Related pubchem assays: 1829 (Project Summary), 1814 (Primary HTS)]; type: functional
# [3] = Luminescence Cell-Based Dose Response HTS to Identify Activators of Luciferase Translation or Activity in H4 […] Cells. [Related pubchem assays: 1829 (Project Summary), 1814 (Primary HTS)]; type: functional
# H4 = test: Luminescence Cell-Based Dose Response HTS to Identify Activators of 5'UTR Stem-Loop Driven Prion Protein mRNA Translation in H4 Neuroglioblastoma Cells. [Related pubchem assays: 1829 (Project Summary), 1814 (Primary HTS)]; type: functional; conditions: Homo sapiens
# [4] = Luminescence Cell-Based Dose Response to Identify Activators of Luciferase Translation or Activity in H4-C Neuroglioblastoma Cells. [Related pubchem assays: 1829 (Project Summary), 1814 (Primary HTS)]; type: functional
# [5] = Luminescence Cell-Based Dose Confirmation to Identify Activators of 5'UTR Stem-Loop Driven Alpha-Synuclein mRNA Translation in H4 Neuroglioblastoma Cells. [Related pubchem assays: 1829 (Project Summary), 1814 (Primary HTS)]; type: functional
# [6] = molecular target: T1, Eukaryotic translation initiation factor 2-alpha kinase 3 (Homo sapiens, UniProt Q9NZJ5); test: Dose response cell-based high-throughput screening assay to measure PERK inhibition. [Related pubchem assays: 1416 ]; type: functional
# T1 sequence (Q9NZJ5 whole entry): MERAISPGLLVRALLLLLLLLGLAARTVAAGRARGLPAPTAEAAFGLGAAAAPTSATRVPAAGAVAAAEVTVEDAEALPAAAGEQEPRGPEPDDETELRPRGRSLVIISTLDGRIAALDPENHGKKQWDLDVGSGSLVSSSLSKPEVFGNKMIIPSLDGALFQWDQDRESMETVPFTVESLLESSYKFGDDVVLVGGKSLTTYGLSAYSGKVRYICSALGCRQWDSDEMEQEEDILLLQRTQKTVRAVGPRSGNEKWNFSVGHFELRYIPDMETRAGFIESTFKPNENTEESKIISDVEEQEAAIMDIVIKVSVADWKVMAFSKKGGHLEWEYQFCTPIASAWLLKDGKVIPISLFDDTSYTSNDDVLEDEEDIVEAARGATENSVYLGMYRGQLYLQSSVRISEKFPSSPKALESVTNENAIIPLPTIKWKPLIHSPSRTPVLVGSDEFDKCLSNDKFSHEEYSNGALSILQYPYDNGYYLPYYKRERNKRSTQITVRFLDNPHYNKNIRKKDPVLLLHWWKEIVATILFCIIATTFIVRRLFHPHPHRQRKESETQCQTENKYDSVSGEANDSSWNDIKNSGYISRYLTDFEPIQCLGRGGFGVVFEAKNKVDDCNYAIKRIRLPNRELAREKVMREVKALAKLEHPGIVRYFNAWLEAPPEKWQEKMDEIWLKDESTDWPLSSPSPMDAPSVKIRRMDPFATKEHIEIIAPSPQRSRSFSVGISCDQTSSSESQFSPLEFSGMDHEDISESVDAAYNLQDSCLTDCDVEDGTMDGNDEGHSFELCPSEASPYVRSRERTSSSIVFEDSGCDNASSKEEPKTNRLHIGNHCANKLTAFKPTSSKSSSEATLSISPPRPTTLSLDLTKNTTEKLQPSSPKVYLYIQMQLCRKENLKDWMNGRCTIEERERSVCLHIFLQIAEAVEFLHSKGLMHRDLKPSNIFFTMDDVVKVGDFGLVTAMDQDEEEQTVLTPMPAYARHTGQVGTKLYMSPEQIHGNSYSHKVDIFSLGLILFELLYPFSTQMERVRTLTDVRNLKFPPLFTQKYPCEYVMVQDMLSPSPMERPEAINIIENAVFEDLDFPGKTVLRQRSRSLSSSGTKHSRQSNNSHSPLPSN
# [7] = molecular target: T1, Eukaryotic translation initiation factor 2-alpha kinase 3; test: Counterscreen assay for PERK inhibitors: Dose response cell-based high throughput screening assay to measure inhibition of PERK at 6 hours. [Related pubchem assays: 1522, 1416 ]; type: functional
# Aspartyl aminopeptidase = Aspartyl aminopeptidase (Plasmodium falciparum 3D7, UniProt Q8I2J3)
# Aspartyl aminopeptidase, sequence (Q8I2J3 whole entry): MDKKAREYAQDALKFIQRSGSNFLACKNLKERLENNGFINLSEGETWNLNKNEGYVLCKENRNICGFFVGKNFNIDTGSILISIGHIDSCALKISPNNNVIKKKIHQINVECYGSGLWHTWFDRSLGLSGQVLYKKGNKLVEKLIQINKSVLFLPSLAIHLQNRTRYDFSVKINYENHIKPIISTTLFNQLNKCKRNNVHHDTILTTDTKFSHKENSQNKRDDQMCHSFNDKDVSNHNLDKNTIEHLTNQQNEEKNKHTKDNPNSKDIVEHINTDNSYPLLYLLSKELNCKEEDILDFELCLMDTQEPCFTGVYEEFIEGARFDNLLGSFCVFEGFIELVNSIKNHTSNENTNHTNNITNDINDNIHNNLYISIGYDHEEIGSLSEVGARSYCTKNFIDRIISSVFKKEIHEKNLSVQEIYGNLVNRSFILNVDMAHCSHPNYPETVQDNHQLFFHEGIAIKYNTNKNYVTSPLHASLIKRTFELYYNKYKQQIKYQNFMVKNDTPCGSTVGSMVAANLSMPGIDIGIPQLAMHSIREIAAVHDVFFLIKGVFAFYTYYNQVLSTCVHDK
# Procathepsin L = Procathepsin L (Homo sapiens, UniProt P07711)
# [8] = tested on: Streptococcus sp. 'group A'; test: growth inhibition of control SK(-) GAS strain, dose response, counter-screen for streptokinase expression inhibitor project, luminescence, kanamycin, BacTiterGlo, confirmation (AID 1900); type: functional, organism-based
# [9] = molecular target: T2, Heat shock factor protein 1 (Mus musculus, UniProt P38532); test: inhibition of MG132-induced HSE-luciferase signal, confirmation, cell-based, NIH3T3, luminescence, dose retest (AID 2382); type: functional;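 also: NIH3T3 fibroblasts with HSF1-driven luciferase reporter stressed by proteasome inhibitor MG132; luminescence from HSF1-driven luciferase expression after 8 hours of MG132 stress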
# T2 sequence (P38532 whole entry): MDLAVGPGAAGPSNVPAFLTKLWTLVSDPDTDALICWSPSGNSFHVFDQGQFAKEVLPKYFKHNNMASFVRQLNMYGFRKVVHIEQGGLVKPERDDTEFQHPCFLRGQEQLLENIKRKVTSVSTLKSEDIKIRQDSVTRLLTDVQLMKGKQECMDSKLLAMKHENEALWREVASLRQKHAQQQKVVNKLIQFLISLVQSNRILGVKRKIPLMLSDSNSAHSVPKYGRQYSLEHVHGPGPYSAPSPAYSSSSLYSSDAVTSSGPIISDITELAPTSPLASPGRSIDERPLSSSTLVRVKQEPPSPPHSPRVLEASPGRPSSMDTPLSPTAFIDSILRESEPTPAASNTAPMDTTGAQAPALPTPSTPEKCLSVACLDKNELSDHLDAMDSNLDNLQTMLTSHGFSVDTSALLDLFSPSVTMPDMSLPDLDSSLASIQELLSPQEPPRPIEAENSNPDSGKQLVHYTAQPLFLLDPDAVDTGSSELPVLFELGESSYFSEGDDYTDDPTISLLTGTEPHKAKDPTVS
# Streptococcus [10] = test: Luminescence Microorganism-Based Dose Response Follow up to Identify Compounds Cytotoxic to Streptococcus. [Related pubchem assays: 1677 (Project Summary), 1915, 1914, 1902 (Retest at Dose), 1900 (Counter Screen), 1662 (Primary HTS)]; type: functional, organism-based
# Streptokinase A = molecular target: T3, Streptokinase A (Streptococcus pyogenes serotype M1, UniProt P10520); test: S. pyogenes streptokinase expression inhibitors, potency, dose response, plasminogen activation absorbance, OD405 (AID 1914); type: functional, Streptococcus pyogenes M1 GAS;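 also: secreted streptokinase activity via plasminogen activation per viability signal from cell pellet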
# T3 sequence (P10520 whole entry): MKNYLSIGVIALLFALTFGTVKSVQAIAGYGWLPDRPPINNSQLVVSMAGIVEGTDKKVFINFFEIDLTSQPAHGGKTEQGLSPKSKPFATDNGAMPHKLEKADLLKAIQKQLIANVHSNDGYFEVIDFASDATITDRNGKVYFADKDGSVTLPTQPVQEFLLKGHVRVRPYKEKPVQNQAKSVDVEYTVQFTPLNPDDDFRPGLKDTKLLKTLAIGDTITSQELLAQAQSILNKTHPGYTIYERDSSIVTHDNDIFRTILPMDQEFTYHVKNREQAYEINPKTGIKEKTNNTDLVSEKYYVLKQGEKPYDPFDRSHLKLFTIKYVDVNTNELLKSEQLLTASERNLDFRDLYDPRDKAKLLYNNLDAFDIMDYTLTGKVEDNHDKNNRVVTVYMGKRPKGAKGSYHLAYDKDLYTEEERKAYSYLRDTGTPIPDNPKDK
# Streptococcus [11] = test: Group A Streptococcus viability loss, dose response, counter-screen for streptokinase expression inhibitor project, luminescence, BacTiterGlo (AID 1915); type: functional, organism-based;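 also: potency for reduction of bacterial viability or growth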
# Cytochrome P450 2D6 = Cytochrome P450 2D6 (Homo sapiens, UniProt P10635); test: qHTS Assay for Inhibitors and Substrates of Cytochrome P450 2D6. [Related pubchem assays: 410 ]; type: ADME; conditions: read-out: Potency
# Cytochrome P450 2D6, sequence (P10635 whole entry): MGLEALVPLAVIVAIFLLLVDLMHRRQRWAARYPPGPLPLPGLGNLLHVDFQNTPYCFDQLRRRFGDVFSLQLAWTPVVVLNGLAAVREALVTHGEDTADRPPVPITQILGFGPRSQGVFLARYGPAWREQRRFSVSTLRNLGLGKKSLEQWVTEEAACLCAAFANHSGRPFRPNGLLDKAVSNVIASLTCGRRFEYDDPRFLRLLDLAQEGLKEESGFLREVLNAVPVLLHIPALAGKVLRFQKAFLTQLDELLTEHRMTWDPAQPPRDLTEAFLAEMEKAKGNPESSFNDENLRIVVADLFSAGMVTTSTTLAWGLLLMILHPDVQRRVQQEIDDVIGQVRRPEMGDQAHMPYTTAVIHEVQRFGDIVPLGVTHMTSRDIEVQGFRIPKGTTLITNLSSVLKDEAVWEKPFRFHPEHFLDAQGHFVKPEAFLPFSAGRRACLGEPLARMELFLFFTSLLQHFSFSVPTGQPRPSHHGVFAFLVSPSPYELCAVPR
# [12] = molecular target: T4, Peroxisome proliferator-activated receptor gamma/Nuclear receptor corepressor 2 (Homo sapiens, UniProt P37231+Q9Y618); test: Counterscreen for NR2E3 inverse agonists: TR-FRET-based biochemical high throughput dose response assay to identify inverse agonists of the interaction between peroxisome proliferator-activated receptor gamma (PPARg) and nuclear receptor co-repressor 2 (NCOR2).; type: functional
# T4 sequence (P37231 whole entry): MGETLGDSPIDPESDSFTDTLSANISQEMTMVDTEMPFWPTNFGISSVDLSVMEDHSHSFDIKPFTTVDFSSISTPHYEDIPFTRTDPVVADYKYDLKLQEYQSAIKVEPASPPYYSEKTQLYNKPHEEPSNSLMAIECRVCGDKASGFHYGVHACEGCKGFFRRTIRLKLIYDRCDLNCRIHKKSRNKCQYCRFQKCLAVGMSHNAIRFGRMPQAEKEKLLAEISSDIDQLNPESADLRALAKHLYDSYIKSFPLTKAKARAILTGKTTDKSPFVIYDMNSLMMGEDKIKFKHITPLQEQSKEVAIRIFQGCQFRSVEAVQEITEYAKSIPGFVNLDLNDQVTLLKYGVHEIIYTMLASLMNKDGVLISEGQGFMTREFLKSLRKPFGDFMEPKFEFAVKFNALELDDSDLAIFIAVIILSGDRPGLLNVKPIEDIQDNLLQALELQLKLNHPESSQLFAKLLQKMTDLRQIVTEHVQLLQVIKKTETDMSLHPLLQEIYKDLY
# T4 sequence (Q9Y618 whole entry): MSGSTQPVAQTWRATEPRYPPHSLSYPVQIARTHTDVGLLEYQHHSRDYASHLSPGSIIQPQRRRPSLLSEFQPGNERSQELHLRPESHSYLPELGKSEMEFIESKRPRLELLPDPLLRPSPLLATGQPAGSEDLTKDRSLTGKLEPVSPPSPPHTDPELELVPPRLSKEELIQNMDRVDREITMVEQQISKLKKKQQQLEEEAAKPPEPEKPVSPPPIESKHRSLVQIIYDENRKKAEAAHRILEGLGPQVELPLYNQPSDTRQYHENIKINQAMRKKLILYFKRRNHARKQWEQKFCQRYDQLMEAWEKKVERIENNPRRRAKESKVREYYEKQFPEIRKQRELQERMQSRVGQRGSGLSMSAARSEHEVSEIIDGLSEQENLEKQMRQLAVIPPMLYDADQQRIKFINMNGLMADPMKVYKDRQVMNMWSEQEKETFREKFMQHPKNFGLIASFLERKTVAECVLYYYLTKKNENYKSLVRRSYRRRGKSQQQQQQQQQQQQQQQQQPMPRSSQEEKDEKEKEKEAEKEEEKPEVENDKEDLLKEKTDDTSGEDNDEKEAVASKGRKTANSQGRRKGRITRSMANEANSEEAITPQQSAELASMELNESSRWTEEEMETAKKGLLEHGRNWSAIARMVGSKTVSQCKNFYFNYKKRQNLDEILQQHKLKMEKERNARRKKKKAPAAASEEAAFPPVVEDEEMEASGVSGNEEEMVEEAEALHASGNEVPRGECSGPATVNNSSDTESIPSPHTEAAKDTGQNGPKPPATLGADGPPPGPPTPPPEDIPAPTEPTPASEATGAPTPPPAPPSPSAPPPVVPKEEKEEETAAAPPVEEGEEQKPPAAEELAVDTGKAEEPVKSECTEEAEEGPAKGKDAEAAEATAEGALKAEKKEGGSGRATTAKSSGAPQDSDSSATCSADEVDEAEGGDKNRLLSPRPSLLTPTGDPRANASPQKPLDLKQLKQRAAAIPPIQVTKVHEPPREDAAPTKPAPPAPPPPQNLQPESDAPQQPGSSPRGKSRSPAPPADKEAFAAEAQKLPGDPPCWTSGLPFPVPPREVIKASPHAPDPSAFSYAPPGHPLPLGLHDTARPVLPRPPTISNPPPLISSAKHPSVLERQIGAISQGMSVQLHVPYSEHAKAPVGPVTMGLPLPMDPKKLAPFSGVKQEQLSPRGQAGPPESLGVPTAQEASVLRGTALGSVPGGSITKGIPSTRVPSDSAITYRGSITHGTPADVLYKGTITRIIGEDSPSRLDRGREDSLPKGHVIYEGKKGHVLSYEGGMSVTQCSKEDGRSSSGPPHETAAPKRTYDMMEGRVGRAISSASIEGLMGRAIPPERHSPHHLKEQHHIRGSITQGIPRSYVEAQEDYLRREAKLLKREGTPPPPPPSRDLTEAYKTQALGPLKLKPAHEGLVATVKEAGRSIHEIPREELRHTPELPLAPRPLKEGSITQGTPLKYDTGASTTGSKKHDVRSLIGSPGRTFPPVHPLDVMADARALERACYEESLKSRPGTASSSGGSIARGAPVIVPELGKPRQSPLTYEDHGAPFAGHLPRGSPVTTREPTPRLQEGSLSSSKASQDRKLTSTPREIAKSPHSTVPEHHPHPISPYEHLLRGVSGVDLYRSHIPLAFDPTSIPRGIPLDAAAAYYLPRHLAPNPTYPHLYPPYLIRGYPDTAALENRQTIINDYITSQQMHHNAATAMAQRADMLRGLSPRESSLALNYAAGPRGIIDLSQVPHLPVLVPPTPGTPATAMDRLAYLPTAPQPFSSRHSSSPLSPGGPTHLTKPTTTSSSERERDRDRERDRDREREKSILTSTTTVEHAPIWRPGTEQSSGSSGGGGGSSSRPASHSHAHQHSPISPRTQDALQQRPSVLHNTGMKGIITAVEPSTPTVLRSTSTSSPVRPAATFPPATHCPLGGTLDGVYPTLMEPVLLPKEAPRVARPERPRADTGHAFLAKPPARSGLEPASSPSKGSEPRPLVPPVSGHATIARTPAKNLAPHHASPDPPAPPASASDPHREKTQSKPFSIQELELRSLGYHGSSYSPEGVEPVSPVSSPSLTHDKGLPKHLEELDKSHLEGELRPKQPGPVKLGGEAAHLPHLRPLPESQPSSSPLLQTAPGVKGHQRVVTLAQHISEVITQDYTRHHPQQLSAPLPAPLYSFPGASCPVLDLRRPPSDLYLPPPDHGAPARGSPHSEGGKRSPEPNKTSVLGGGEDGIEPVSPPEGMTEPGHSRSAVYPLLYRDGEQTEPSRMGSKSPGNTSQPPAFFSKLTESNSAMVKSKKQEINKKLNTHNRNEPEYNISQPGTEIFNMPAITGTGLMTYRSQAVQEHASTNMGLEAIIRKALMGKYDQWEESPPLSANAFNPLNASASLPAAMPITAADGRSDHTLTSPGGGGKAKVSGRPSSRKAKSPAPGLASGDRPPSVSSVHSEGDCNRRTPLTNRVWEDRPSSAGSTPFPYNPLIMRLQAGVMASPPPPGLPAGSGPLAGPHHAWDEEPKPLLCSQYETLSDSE
# [13] = molecular target: T5, Photoreceptor-specific nuclear receptor (Homo sapiens, UniProt Q9Y5X4); test: NR2E3 inverse agonists, dose response, biochemical, TR-FRET (AID 463256); type: functional
# T5 sequence (Q9Y5X4 whole entry): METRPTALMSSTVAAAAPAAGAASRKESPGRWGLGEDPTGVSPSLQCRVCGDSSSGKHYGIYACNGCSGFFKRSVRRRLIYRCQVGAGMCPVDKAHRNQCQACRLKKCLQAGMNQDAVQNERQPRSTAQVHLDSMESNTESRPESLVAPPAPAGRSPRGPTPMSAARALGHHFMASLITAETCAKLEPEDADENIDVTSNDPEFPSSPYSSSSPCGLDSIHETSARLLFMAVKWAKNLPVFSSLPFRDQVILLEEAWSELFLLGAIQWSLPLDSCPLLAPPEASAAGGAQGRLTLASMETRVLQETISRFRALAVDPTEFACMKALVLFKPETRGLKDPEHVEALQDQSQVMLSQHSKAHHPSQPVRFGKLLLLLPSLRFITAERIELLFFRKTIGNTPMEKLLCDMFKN
# [14] = molecular target: T5, Photoreceptor-specific nuclear receptor; type: functional
# Large T antigen = Large T antigen (Simian virus 40, UniProt P03070); type: functional, Betapolyomavirus macacae;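 also: Confirmatory-stage PubChem screen for compounds that inhibit SV40 T antigen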
# [15] = molecular target: T4, Peroxisome proliferator-activated receptor gamma/Nuclear receptor corepressor 2; type: functional
# [16] = molecular target: Induced myeloid leukemia cell differentiation protein Mcl-1 (Homo sapiens, UniProt Q07820); type: functional
# Induced myeloid leukemia cell differentiation protein Mcl-1, sequence (Q07820 whole entry): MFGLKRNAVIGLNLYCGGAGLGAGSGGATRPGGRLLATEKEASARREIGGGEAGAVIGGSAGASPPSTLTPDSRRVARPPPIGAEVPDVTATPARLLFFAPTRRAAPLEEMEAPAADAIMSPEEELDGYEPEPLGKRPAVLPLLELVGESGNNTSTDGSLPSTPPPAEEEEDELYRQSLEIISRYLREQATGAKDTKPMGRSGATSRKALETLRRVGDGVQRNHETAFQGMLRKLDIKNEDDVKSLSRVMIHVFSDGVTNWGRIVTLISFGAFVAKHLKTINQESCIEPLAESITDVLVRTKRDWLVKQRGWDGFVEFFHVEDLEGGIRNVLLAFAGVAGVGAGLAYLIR
# [17] = molecular target: Benomyl/methotrexate resistance protein (Candida albicans, UniProt P28873); test: CaMdr1 efflux pump inhibitor potency, dose response, singleplex, Cherry Pick1 hits (AID 588608); type: functional
# NADPH oxidase 1 = molecular target: T6, NADPH oxidase 1 (Homo sapiens, UniProt Q9Y5S8); type: functional, cell-based;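 also: Cell-based assay with luminescence read-out, IC50 derived from inhibitor dose-response curves; intracellular ROS from endogenous NOX1 in intact HT29 colon cancer cells; potency of inhibitors that lower the ROS luminescence signal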
# T6 sequence (Q9Y5S8 whole entry): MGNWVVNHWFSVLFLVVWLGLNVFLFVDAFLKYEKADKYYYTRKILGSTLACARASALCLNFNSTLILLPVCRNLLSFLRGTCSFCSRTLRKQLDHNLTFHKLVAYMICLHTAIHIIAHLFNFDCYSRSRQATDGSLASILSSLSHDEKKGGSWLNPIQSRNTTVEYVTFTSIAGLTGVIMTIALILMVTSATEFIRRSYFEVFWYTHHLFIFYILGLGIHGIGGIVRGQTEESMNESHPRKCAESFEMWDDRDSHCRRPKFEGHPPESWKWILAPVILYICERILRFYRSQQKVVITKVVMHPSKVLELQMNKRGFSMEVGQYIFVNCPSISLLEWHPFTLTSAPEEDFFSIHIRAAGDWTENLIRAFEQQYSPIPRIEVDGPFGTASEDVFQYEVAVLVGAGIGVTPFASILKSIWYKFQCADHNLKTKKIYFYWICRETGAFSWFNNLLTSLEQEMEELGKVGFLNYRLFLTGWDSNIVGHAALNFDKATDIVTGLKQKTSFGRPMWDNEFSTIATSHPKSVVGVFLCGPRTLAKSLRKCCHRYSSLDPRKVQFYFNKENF
# Cytochrome P450 3A4 = Cytochrome P450 3A4 (Homo sapiens, UniProt P08684); conditions: Potency;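 also: confirmatory qHTS run detecting inhibitors and substrates of CYP3A4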
# Cytochrome P450 2C9 = Cytochrome P450 2C9 (Homo sapiens, UniProt P11712); conditions: Potency
structure (smiles),measurement,setting,value
O=C(/C=C(/c1ccc(Cl)cc1)n1cncn1)c1ccccc1,EC50,[1],> 12 µM (not active)
same,EC50,[2],> 120 µM (not active)
same,EC50,[3],> 120 µM (not active)
same,EC50,H4,> 120 µM (not active)
same,EC50,[4],> 12 µM (not active)
same,EC50,[5],> 12 µM (not active)
CC(C)Cn1c(S(=O)(=O)O)nc2ccccc21,EC50,[6],> 55.7 µM (not active)
same,EC50,[7],> 55.7 µM (not active)
Cc1ccc(Cl)cc1NC(=O)Nn1cnnc1,IC50,Aspartyl aminopeptidase,1.7 µM (active)
same,IC50,Procathepsin L,> 59.6 µM (not active)
Cc1cccc(NC(=O)C2SC(Nc3c(C)cccc3C)=C(C(=O)N3CCOCC3)C2=N)c1 (stereo not given),EC50,[8],0.959 µM (active)
same,EC50,[9],> 195 µM (not active)
same,EC50,Streptococcus [10],4.32 µM (active)
same,EC50,Streptokinase A,3.32 µM (active)
same,EC50,Streptococcus [11],> 150 µM (not active)
Cc1cc(F)ccc1OC1C=CC(c2ccc3c(c2)OCO3)OC1CO (stereo not given),AC50,Cytochrome P450 2D6,3.98 µM (inconclusive)
Cc1cc(C)c2nc(SCC(=O)NCCC3=CCCCC3)cc(C)c2c1,IC50,[12],> 39.8 µM (not active)
same,IC50,[13],> 39.8 µM (not active)
CCCOC(=O)CCCN1C(=O)/C(=C2\SC(=S)N(CCCC(=O)OCCC)C2=O)SC1=S,EC50,[6],> 55.7 µM (not active)
same,EC50,[7],> 55.7 µM (not active)
Cc1ccc(-c2c3c([nH]c(=S)c2C#N)CCCC3)o1,IC50,[14],1.09 µM (active)
same,IC50,Large T antigen,35.4 µM (active)
same,IC50,[15],1.72 µM (active)
same,IC50,[16],2.4 µM (active)
same,EC50,[17],6.14 µM (active)
O=C(CSc1ccc(Cl)cc1)N1c2ccccc2Sc2ccccc21,EC50,Streptococcus [10],> 500 µM (not active)
Cc1cc(/C=N/NC(=O)c2cccc(F)c2)c(C)n1-c1ccccc1,EC50,[1],0.849 µM (active)
same,EC50,[3],< 0.1 µM (inconclusive)
same,EC50,H4,> 120 µM (not active)
same,EC50,[4],0.217 µM (active)
same,EC50,[5],2.7 µM (active)
c1ccc(-c2nc(-c3ccco3)[nH]c2-c2ccccc2)cc1,IC50,NADPH oxidase 1,> 17 µM (not active)
COc1cc2ccc(=O)oc2c(O)c1OCC=C(C)C [CAPENSIN],AC50,Cytochrome P450 2D6,25.1 µM (inconclusive)
same,AC50,Cytochrome P450 3A4,12.6 µM (inconclusive)
same,AC50,Cytochrome P450 2C9,31.6 µM (inconclusive)

# From ChEMBL document CHEMBL1201862, “PubChem BioAssay data set” (2004)
